In patent US20260097133A1, “EPIGENETIC EDITING TOOL FOR TARGETING HEPATITIS B VIRUS GENE” (priority 2023, published 2026):

Experiments:
Format in all cases: cell-based
Conditions in all cases: sgRNA in GFP-negative cell population, day 14 after transfection of EPIREG
[1] = tested on: type D HBV surface antigen (HBsAg) reporter cell line; assay: sgRNA lentiviral library screening, HBsAg reporter cell line (NGS reads in GFP-negative cells)
From the text: (§1) In this example, the type D HBV X protein (HBx), core antigen (HBcAg), and surface antigen (HBsAg) reporter cell lines were used for library screening. First, a sgRNA cell library of type D HBV gene was constructed using a reporter cell line according to the method described in example 1. The sgRNA library was packaged into lentivirus to obtain a sgRNA lentiviral library (carrying red fluorescence), the reporter cell line was infected with the lentiviral library, and the red fluorescence was sorted to obtain the sgRNA cell library. Each cell in this sorted cell library integrated a single sgRNA in the library while the cell itself carried a reporter sequence (carrying green fluorescence). The EPIREG tool described in example 2 (the amino acid sequence of the tool was SEQ ID NO: 1194) (carrying blue fluorescence) was transfected and delivered into a cell library carrying both sgRNA and reporter sequences. Red/green/blue fluorescent triple-positive cells were sorted using a flow cytometer and cultured long-term. The EPIREG transfected into the cells could work together with the sgRNA to silence GFP in the reporter. On the day 14 after transfection, the GFP-negative cell population in the cell library was sorted, the genomic DNA of the negative cell population was extracted for NGS sequencing. The sgRNAs with higher sequencing reads in the negative cell population were compared using the untreated cell library as a control reference, so as to obtain the candidate sgRNAs that could play an editing role corresponding to each reporter, respectively (the schematic diagram of this screening scheme is shown in FIG. 6, and the analysis method is referenced to the literature DOI: 10.1186/s13059-014-0554-4). The functionally validated sgRNAs for each reporter cell line are summarized in the following table (arranged by the starting position of the target sequence of each sgRNA).

[2] = tested on: type D HBV core antigen (HBcAg) reporter cell line; assay: sgRNA lentiviral library screening, HBcAg reporter cell line (NGS reads in GFP-negative cells)
From the text: as §1

[3] = tested on: type D HBV X protein (HBx) reporter cell line; assay: sgRNA lentiviral library screening, HBx reporter cell line (NGS reads in GFP-negative cells)
From the text: as §1

Substance	Log2 FC [1]	Log2 FC [2]	Log2 FC [3]
62 (guide AATGTCAACGACCGACCTTG; listed as DNA, chemistry not fully specified) [compound 62]	1.5364	2.2035	–
88 (guide ACATCGTATCCATGGCTGCT; listed as DNA, chemistry not fully specified) [compound 88]	1.2095	3.4446	3.4448
127 (guide ACTGGCTGGGGCTTGGTCAT; listed as DNA, chemistry not fully specified) [compound 127]	1.3983	2.0792	7.231
145 (guide AGACTGGGAGGAGTTGGGGG; listed as DNA, chemistry not fully specified) [compound 145]	1.8314	3.5473	–
150 (guide AGAGAGGTGCGCCCCGTGGT; listed as DNA, chemistry not fully specified) [compound 150]	1.453	–	3.8671
161 (guide AGATTAAAGGTCTTTGTACT; listed as DNA, chemistry not fully specified) [compound 161]	1.8238	2.5156	–
211 (guide AGTCCCAAGCGACCCCGAGA; listed as DNA, chemistry not fully specified) [compound 211]	1.5263	4.4175	4.6655
215 (guide AGTCTTTGAAGTATGCCTCA; listed as DNA, chemistry not fully specified) [compound 215]	1.3799	2.1589	–
227 (guide ATAGAGTATTTGGTGTCTTT; listed as DNA, chemistry not fully specified) [compound 227]	0.9275	–	–
242 (guide ATCCTGCGGACGACCCTTCT; listed as DNA, chemistry not fully specified) [compound 242]	0.8809	–	–
270 (guide ATTTGCTGTGTTTGCTCTGA; listed as DNA, chemistry not fully specified) [compound 270]	1.397	–	–
410 (guide CCCGTTGCCCGGCAACGGCC; listed as DNA, chemistry not fully specified) [compound 410]	1.9735	–	–
467 (guide CGACCCTTCTCGGGGTCGCT; listed as DNA, chemistry not fully specified) [compound 467]	1.8988	2.0481	2.9245
483 (guide CGCCCCGTGGTCGGTCGGAA; listed as DNA, chemistry not fully specified) [compound 483]	2.4519	4.8386	6.4685
491 (guide CGGAACGGCAGACGGAGAAG; listed as DNA, chemistry not fully specified) [compound 491]	2.6046	4.5168	6.0674
506 (guide CGTCCCGCGCAGGATCCAGT; listed as DNA, chemistry not fully specified) [compound 506]	1.5863	3.3238	5.3827
593 (guide GAATCCCAGAGGATTGCTGG; listed as DNA, chemistry not fully specified) [compound 593]	0.9124	–	–
598 (guide GACATGAACAAGAGATGATT; listed as DNA, chemistry not fully specified) [compound 598]	1.4722	4.6761	–
601 (guide GACCAAGCCCCAGCCAGTGG; listed as DNA, chemistry not fully specified) [compound 601]	1.3073	4.6508	7.1876

Substance	Log2 FC [1]	Log2 FC [2]	Log2 FC [3]
641 (guide GATCGGCAGAGGAGCCGAAA; listed as DNA, chemistry not fully specified) [compound 641]	1.58	5.5293	7.351
658 (guide GCAAATATACATCGTATCCA; listed as DNA, chemistry not fully specified) [compound 658]	1.8084	2.2171	4.7952
668 (guide GCAGAGGTGAAAAAGTTGCA; listed as DNA, chemistry not fully specified) [compound 668]	1.297	1.9744	–
669 (guide GCAGATGAGAAGGCACAGAC; listed as DNA, chemistry not fully specified) [compound 669]	1.1259	3.0945	4.1676
671 (guide GCAGCACAGCCTAGCAGCCA; listed as DNA, chemistry not fully specified) [compound 671]	1.2918	–	–
774 (guide GGGGCGCACCTCTCTTTACG; listed as DNA, chemistry not fully specified) [compound 774]	1.1527	–	3.0494
792 (guide GGTCTGGAGCAAACATTATC; listed as DNA, chemistry not fully specified) [compound 792]	1.5074	2.103	5.6925
810 (guide GTAAAGAGAGGTGCGCCCCG; listed as DNA, chemistry not fully specified) [compound 810]	1.7059	2.5258	5.1825
825 (guide GTCCCAAGCGACCCCGAGAA; listed as DNA, chemistry not fully specified) [compound 825]	1.0352	3.3064	5.2457
829 (guide GTCCTCTTATGTAAGACCTT; listed as DNA, chemistry not fully specified) [compound 829]	0.9029	–	–
834 (guide GTCGGAACGGCAGACGGAGA; listed as DNA, chemistry not fully specified) [compound 834]	1.2666	2.7177	4.7704
839 (guide GTCTTACATAAGAGGACTCT; listed as DNA, chemistry not fully specified) [compound 839]	1.3376	–	–
973 (guide TCGGAACGGCAGACGGAGAA; listed as DNA, chemistry not fully specified) [compound 973]	1.056	3.9552	6.3619
985 (guide TCTGCCGTTCCGACCGACCA; listed as DNA, chemistry not fully specified) [compound 985]	1.8695	3.1824	6.0276
998 (guide TCTTTGTACTAGGAGGCTGT; listed as DNA, chemistry not fully specified) [compound 998]	2.1989	4.2906	–
1025 (guide TGCCCAAGGTCTTACATAAG; listed as DNA, chemistry not fully specified) [compound 1025]	1.4524	2.0852	–
1028 (guide TGCCGTTCCGACCGACCACG; listed as DNA, chemistry not fully specified) [compound 1028]	0.8922	3.8548	–
1072 (guide TGTAGTATGCCCTGAGCCTG; listed as DNA, chemistry not fully specified) [compound 1072]	1.1325	–	–
1084 (guide TTAAAGGTCTTTGTACTAGG; listed as DNA, chemistry not fully specified) [compound 1084]	1.0831	–	–
